The record followed here is US11866450B2, “Modulators of Cystic Fibrosis Transmembrane Conductance regulator, pharmaceutical compositions, methods of treatment, and process for making the modulators” (priority 2018, dated 2024).

Structures are written as SMILES.

As usually defined, the EC50 is the concentration giving half of the maximal effect.

The target of the test is CFTR-mediated chloride transport (Homo sapiens, UniProt P13569). The class given is cell-based. The note with it: enteroid cells incubated with test compound 18-24 hours, acute 10 μM forskolin and 300 nM Compound III; for Max. Activity: % of chloride transport with 3 μM Compound A, 3 μM Compound II and 300 nM acute Compound III triple combination control. The method in brief: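 Human intestinal enteroid cells incubated with compound 18–24 h at 37° C., then membrane potential dye (FLIPR) read 15 min after chloride-free stimulation with 10 μM forskolin, 100 μM IBMX and 300 nM Compound III. AUC expressed as % of triple-combination control (3 μM Compound A, 3 μM Compound II, 300 nM Compound III).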
Sequence of CFTR-mediated chloride transport (P13569 whole entry, looked up): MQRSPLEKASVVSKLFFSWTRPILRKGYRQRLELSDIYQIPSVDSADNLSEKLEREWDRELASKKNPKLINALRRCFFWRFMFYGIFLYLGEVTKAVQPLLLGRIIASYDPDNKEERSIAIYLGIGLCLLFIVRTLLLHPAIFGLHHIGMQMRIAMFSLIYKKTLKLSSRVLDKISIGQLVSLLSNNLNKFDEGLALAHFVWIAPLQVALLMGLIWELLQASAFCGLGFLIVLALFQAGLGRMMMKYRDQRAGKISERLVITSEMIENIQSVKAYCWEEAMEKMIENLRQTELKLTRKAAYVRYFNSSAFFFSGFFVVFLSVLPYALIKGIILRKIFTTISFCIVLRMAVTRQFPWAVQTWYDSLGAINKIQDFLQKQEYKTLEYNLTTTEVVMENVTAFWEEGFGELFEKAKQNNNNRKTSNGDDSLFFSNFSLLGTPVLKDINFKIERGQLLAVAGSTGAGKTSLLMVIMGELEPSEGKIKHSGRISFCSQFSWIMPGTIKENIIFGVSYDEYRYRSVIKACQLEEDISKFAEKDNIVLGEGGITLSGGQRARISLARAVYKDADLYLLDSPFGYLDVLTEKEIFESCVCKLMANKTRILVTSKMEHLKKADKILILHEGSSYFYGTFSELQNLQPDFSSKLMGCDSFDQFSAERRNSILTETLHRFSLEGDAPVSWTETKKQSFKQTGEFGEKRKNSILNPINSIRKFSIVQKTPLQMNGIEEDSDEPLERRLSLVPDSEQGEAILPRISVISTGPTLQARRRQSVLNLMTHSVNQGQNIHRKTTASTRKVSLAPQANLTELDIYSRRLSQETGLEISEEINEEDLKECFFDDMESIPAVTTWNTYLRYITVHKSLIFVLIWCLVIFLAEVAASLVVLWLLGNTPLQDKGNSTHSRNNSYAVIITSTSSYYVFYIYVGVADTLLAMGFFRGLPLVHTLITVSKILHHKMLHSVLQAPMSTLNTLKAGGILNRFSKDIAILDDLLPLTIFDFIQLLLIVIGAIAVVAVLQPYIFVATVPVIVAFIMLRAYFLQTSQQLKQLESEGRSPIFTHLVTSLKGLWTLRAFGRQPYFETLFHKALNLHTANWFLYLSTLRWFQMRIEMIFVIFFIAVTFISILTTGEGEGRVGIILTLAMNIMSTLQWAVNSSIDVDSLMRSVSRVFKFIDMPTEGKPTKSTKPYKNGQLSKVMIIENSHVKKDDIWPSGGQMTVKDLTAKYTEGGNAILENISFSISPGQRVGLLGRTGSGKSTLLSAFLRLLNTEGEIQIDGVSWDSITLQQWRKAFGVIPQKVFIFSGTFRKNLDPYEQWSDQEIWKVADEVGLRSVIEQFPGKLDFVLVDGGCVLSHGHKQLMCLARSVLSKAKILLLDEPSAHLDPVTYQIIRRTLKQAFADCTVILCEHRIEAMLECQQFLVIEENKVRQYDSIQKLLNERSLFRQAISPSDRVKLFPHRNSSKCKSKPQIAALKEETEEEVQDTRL

As to `CC1(C)C[C@H]2CCCOc3ccc(cc3)S(=O)(=O)NC(=O)c3ccc(-n4ccc(OCCC5(C(F)(F)F)CC5)n4)nc3N1C2` (single isomer, unassigned) [Compound 100, 12,12-dimethyl-8-(3-{2-[1-(trifluoromethyl)cyclopropyl]ethoxy}-1H-pyrazol-1-yl)-18-oxa-2λ^6-thia-3,9,11-triazatetracyclo[17.2.2.111,14.05,10]tetracosa-1(21),5,7,9,19,22-hexaene-2,2,4-trione], the concentration giving a half-maximal response (EC50) is greater than 3000 nM and the “Max. Activity” value is listed as “+ (+ is <30%)”.
For `CC1(C)C[C@H]2CCCCOc3ccc(cn3)S(=O)(=O)NC(=O)c3ccc(-n4ccc(OCCC5(C(F)(F)F)CC5)n4)nc3N1C2` (single isomer, unassigned) [Compound 103, 12,12-dimethyl-8-(3-{2-[1-(trifluoromethyl)cyclopropyl]ethoxy}-1H-pyrazol-1-yl)-19-oxa-2λ^6-thia-3,9,11,21-tetraazatetracyclo[18.2.2.111,14.05,10]pentacosa-1(23),5,7,9,20(24),21-hexaene-2,2,4-trione], in that order: less than 1000 nM and “++ (++ is 30-60%)”.
Consider `CC1(C)C[C@H]2CCCCOc3ccc(cn3)S(=O)(=O)NC(=O)c3ccc(-n4ccc(OCCC5(C(F)(F)F)CC5)n4)nc3N1C2` (single isomer, unassigned) [Compound 104, 12,12-dimethyl-8-(3-{2-[1-(trifluoromethyl)cyclopropyl]ethoxy}-1H-pyrazol-1-yl)-19-oxa-2λ^6-thia-3,9,11,21-tetraazatetracyclo[18.2.2.111,14.05,10]pentacosa-1(23),5,7,9,20(24),21-hexaene-2,2,4-trione], for which the EC50 was greater than 3000 nM and the “Max. Activity” value is “+ (+ is <30%)”.
For `CC1(C)C[C@H]2CCCNc3cccc(n3)S(=O)(=O)NC(=O)c3ccc(-n4ccc(OCC5C6(CC6)C56CC6)n4)nc3N1C2` (single isomer, unassigned) [Compound 106, 8-[3-({dispiro[2.0.2.1]heptan-7-yl}methoxy)-1H-pyrazol-1-yl]-12,12-dimethyl-2λ^6-thia-3,9,11,18,23-pentaazatetracyclo[17.3.1.111,14.05,10]tetracosa-1(22),5,7,9,19(23),20-hexaene-2,2,4-trione], in that order: less than 1000 nM and “+++ (+++ is >60%)”.
For `CC1(C)C[C@H]2CCCNc3cccc(n3)S(=O)(=O)NC(=O)c3ccc(-n4ccc(OCC5C6(CC6)C56CC6)n4)nc3N1C2` (single isomer, unassigned) [Compound 107, 8-[3-({dispiro[2.0.2.1]heptan-7-yl}methoxy)-1H-pyrazol-1-yl]-12,12-dimethyl-2λ^6-thia-3,9,11,18,23-pentaazatetracyclo[17.3.1.111,14.05,10]tetracosa-1(22),5,7,9,19(23),20-hexaene-2,2,4-trione], the EC50 was less than 1000 nM and the “Max. Activity” value was “+++ (+++ is >60%)”.
Take `Cc1c2cnn1CCC[C@@H]1CN(c3nc(-n4ccc(OCCC5(C(F)(F)F)CC5)n4)ccc3C(=O)NS2(=O)=O)C(C)(C)C1` (single isomer, unassigned) [Compound 111]: the EC50 was less than 1000 nM and the “Max. Activity” value is on record as “+++ (+++ is >60%)”.
As for `Cc1c2cnn1CCC[C@@H]1CN(c3nc(-n4ccc(OCCC5(C(F)(F)F)CC5)n4)ccc3C(=O)NS2(=O)=O)C(C)(C)C1` (single isomer, unassigned) [Compound 113], the EC50 fell in the range of 1000 to 3000 nM and the “Max. Activity” value is “++ (++ is 30-60%)”.
As to `Cc1ccc2nc1NCCC[C@H]1CN(c3nc(-n4ccc(OCCC5(C(F)(F)F)CC5)n4)ccc3C(=O)NS2(=O)=O)C(C)(C)C1` (single isomer, unassigned) [Compound 114, 12,12,20-trimethyl-8-(3-{2-[1-(trifluoromethyl)cyclopropyl]ethoxy}-1H-pyrazol-1-yl)-2λ^6-thia-3,9,11,18,23-pentaazatetracyclo[17.3.1.111,14.05,10]tetracosa-1(23),5(10),6,8,19,21-hexaene-2,2,4-trione], the EC50 is greater than 3000 nM and the “Max. Activity” value was “+ (+ is <30%)”.
On to `Cc1ccc2nc1NCCC[C@H]1CN(c3nc(-n4ccc(OCCC5(C(F)(F)F)CC5)n4)ccc3C(=O)NS2(=O)=O)C(C)(C)C1` (single isomer, unassigned) [Compound 115, 12,12,20-trimethyl-8-(3-{2-[1-(trifluoromethyl)cyclopropyl]ethoxy}-1H-pyrazol-1-yl)-2λ^6-thia-3,9,11,18,23-pentaazatetracyclo[17.3.1.111,14.05,10]tetracosa-1(23),5(10),6,8,19,21-hexaene-2,2,4-trione], for which the concentration giving a half-maximal response (EC50) is less than 1000 nM and the “Max. Activity” value is “+++ (+++ is >60%)”.
For `CC1(C)CC[C@H]2CCNc3cccc(n3)S(=O)(=O)NC(=O)c3ccc(-n4ccc(OCCC5(C(F)(F)F)CC5)n4)nc3N21` (single isomer, unassigned) [Compound 116, 8,8-Dimethyl-12-(3-{2-[1-(trifluoromethyl)cyclopropyl]ethoxy}-1H-pyrazol-1-yl)-18λ^6-thia-2,9,11,17,23-pentaazatetracyclo[17.3.1.05,9.010,15]tricosa-1(23),10(15),11,13,19,21-hexaene-16,18,18-trione], in that order: less than 1000 nM and “++ (++ is 30-60%)”.
In the case of `CC1(C)CC[C@H]2CCNc3cccc(n3)S(=O)(=O)NC(=O)c3ccc(-n4ccc(OCCC5(C(F)(F)F)CC5)n4)nc3N21` (single isomer, unassigned) [Compound 117, 8,8-dimethyl-12-(3-{2-[1-(trifluoromethyl)cyclopropyl]ethoxy}-1H-pyrazol-1-yl)-18λ^6-thia-2,9,11,17,23-pentaazatetracyclo[17.3.1.05,9.010,15]tricosa-1(23),10(15),11,13,19,21-hexaene-16,18,18-trione], the half-maximal effective concentration (EC50) was less than 1000 nM and the “Max. Activity” value is listed as “++ (++ is 30-60%)”.
The matching figures for `CC1(C)C[C@H]2CCCn3cc(cn3)S(=O)(=O)NC(=O)c3ccc(-n4ccc(OCCC5(C(F)(F)F)CC5)n4)nc3N1C2` (single isomer, unassigned) [Compound 118, 20,20-Dimethyl-4-(3-{2-[1-(trifluoromethyl)cyclopropyl]ethoxy}-1H-pyrazol-1-yl)-10λ^6-thia-1,3,9,13,14-pentaazatetracyclo[16.2.1.111,14.02,7]docosa-2,4,6,11(22),12-pentaene-8,10,10-trione]: 1000 to 3000 nM and “+ (+ is <30%)”.
In the case of `CC1(C)C[C@H]2CCCn3cc(cn3)S(=O)(=O)NC(=O)c3ccc(-n4ccc(OCCC5(C(F)(F)F)CC5)n4)nc3N1C2` (single isomer, unassigned) [Compound 119, 20,20-dimethyl-4-(3-{2-[1-(trifluoromethyl)cyclopropyl]ethoxy}-1H-pyrazol-1-yl)-10λ^6-thia-1,3,9,13,14-pentaazatetracyclo[16.2.1.111,14.02,7]docosa-2,4,6,11(22),12-pentaene-8,10,10-trione], the EC50 was less than 1000 nM and the “Max. Activity” value is “+++ (+++ is >60%)”.
